Test results reported in patent US20250277059A1, “ANTIBODY USED TO TREAT CORONAVIRUS INFECTION” (priority 2022, published 2025).

Experiments:
[1] = system: pseudo-typed virus having S protein of SARS COV_2 S VOC202012/01 (B.1.1.7: α variant); type: cell-based, SARS-COV-2
[2] = system: pseudo-typed virus having S protein of SARS COV_2 S 501Y.V2 (B.1.351: β variant); type: cell-based, SARS-COV-2

## N=C(N)c1ccc2cc(OC(=O)c3ccc(N=C(N)N)cc3)ccc2c1 [Nafamostat, nafamostat]
[1]
  infection inhibiting effect on α variant-type virus: exhibited infection inhibiting effects
[2]
  infection inhibiting effect on β variant-type virus: exhibited infection inhibiting effects
